Consider 1 compound from PMC11784013, “Potassium molybdate blocks APN-dependent coronavirus entry by degrading receptor via PIK3C3-mediated autophagy” (Journal of Virology, 2024).

One test has as its system PDCoV. The test can be described thus: PDCoV infection of PK1 cells (RT-qPCR). The following applies: PM 10 mM, PDCoV 0.1 MOI, 17 h. Format: cell-based. On the procedure: Fig. S1. […] (A) The PK1 cells, pretreated with PM (10mM) concentrations for 1 h were infected with PDCoV (0.1 MOI) for 1 h and were again treated with PM at 37 °C for 17 h.
The cell samples were collected and examined by RT-qPCR . Results are presented as mean ± SD of data from three independent experiments ***, P≤ 0.001.
(also on this page, place not known: RT-qPCR. + - + + 2 3 4 5 6Viral load(log copies/ul) *** PDCoV PM PDCoV M)
(1 picture or pasted object on this page, not shown here)
(Real-time PCR tracks product formation cycle by cycle.)

The next test relates to APN. Kind of test: APN expression in ST cells and porcine intestinal organoids (western blot, IFA). As to conditions: PM 10 mM; for APN level, western blot, relative to WT without PM (=1) / APN level, western blot quantified by Image J, relative to no PM (=1): PRCV 0.1 MOI; for APN level, western blot quantified by Image J, relative to no PM (=1): ST cells. Format: cell-based. On the procedure: Fig 5 PM blocks TGEV infection by degrading APN expression. (A, D, and G) ST cells (A) or intestinal organoids monolayer (D) or apical-out intestinal organoids (G) were treated with PM (10 mM) at 2, 4, 8, and 16 h, which was collected and determined by western blot. (B, E, and H) ST cells (B) or intestinal organoids monolayer (E) or apical-out intestinal organoids (H) were treated with PM (10 mM) at 16 h, which was measured by IFA, scale bar: 20 µm. (C, F, and I) ST cells (C) or intestinal organoids monolayer (F) or apical-out intestinal organoids (I) were treated with PM (10 mM) and infected with 0.1 MOI TGEV at 2, 4, 8, and 16 h. The cell samples were harvested and detected by western blot. (J) ST cells were transfected with empty vector or pCMV-HA-APN (pig) plasmids for 24 h, which was treated with H2O or PM and then infected with 0.1 MOI TGEV for 16 h. The cell samples were detected by western blot. All western blot results were calculated by Image J. All experiments were performed in triplicate.
Cotransfected cells were washed with cold PBS twice and lysed with NP40 lysis buffer (Beyotime, China, P0013F) supplemented with 1 mM PMSF (Beyotime, China, ST506) and phosphatase inhibitors (Beyotime, China, P1096). Lysis buffer containing cells was added to 20 µL of protein A+G agarose beads (Beyotime, China, P2055) and IgG (Santa Cruz, USA, 2025) on a rotating device for 4 h at 4°C to remove nonspecific proteins, after which the mixture was centrifuged at 2,500 rpm for 5 min. The supernatant was harvested, and anti-Flag/Myc/His/IgG antibodies were added to the samples on a rocking platform overnight at 4°C. Subsequently, 40 µL of protein A+G agarose beads were added to the supernatant containing the antibody, which was incubated for 4 h at 4°C on a rotating device. After washing with lysis buffer three times, the immunoprecipitates were collected by centrifugation, and the supernatant was discarded. Immunoprecipitated proteins were detected by western blotting. For the western blot, the proteins were separated by SDS‒PAGE and transferred onto a PVDF membrane (GE, USA, 10600023). The membranes were blocked in 5% nonfat milk at room temperature for 2 h and then incubated with specific primary antibodies overnight. Subsequently, the membrane was incubated with the secondary antibody for 1 h at room temperature. Finally, the proteins on the membranes were visualized with WesternBright ECL (Advansta, USA, K-12045-D50).
Fig. S5. PM blocks PRCV infection by degrading APN expression. (A) ST cells were treated with PM (10 mM) and infected with 0.1 MOI PRCV at 2 h, 4 h, 8 h and 16 h. The cell samples were harvested and determined by western blot. All western blot results were calculated by Image J. All experiments were performed in triplicate.
Fig. S8. PM inhibits PRCV infection by degrading APN via PIK3C3-mediated autophagy. (A-C) WT ST cells and PIK3C3 KO ST cells were treated with PM (10 mM) and infected with PRCV (0.1 MOI) for 16 h. Then the APN, PIK3C3, ATG14, BECN1, P62, PRCV N and LC3 were detected by western blot (A), and viral titers and PRCV N mRNA level were determined by TCID50 (B) and RT-qPCR (C) . (D-F) WT ST cells and PIK3C3 KO ST cells transfected with pCMV-Myc and pCMV-Myc-PIK3C3 respectively for 24 h were treated with PM (10 mM) and infected with PRCV (0.1 MOI) for 16 h. The APN, PIK3C3, P62, PRCV N and LC3 were determined by western blot (D). TCID50 (E) and RT-qPCR (F) were performed to detect viral titers and PRCV N m RNA level. All western blot results were calculated by Image J. Results are presented as mean ± SD of data from three independent experiments […]
(Immunoblotting shows a protein as a band on a membrane.)

“Also recorded” adds a separate entry of the source.

For the compound `[K+].[K+].[O]=[Mo](=[O])([O-])[O-]` [PM, potassium molybdate], the PDCoV infection entry in the test with PDCoV is recorded as “inhibits PDCoV infection; also recorded: effectively restricted”. For the same compound, the “APN level, western blot, relative to WT without PM (=1)” value is reported as 0.88 in the test on APN (Fig. S8A, PIK3C3 KO ST cells, 16 h); 0.15 in the test on APN (Fig. S8A, WT ST cells, 16 h); 0.14 in the test on APN (Fig. S8D, PIK3C3 KO ST cells with PIK3C3-Myc, 16 h); 0.87 in the test on APN (Fig. S8D, PIK3C3 KO ST cells without PIK3C3-Myc, 16 h); 0.1 with APN (Fig. S8D, WT ST cells with pCMV-Myc, 16 h). In the test with APN (2-16 h, western blot and IFA), the “APN expression in ST cells” value was “decreased APN expression in ST cells”. Besides, the “APN expression in intestinal organoid monolayers and apical-out organoids” value in the test on APN (absence or presence of TGEV, different time points, western blot and IFA) is listed as “decreased ex vivo APN expression”. For the same compound, the “APN level, western blot quantified by Image J, relative to no PM (=1)” value is 0.53 in the test on APN (2 h), 0.31 with APN (4 h), 0.19 with APN (8 h) and 0.01 in the test on APN (16 h).
